According to ChEMBL document CHEMBL4308846, “How Selective Are Pharmacological Inhibitors of Cell-Cycle-Regulating Cyclin-Dependent Kinases?” (J Med Chem, 2018):
Activity calls are given as the source filed them. The rule behind the calls is not given here.

Key:
[1] = target: Cyclin-dependent kinase 2/cyclin E1 (Homo sapiens, UniProt P24941); experiment: biochemical
[2] = target: Cyclin-dependent kinase 5/CDK5 activator 1 (Homo sapiens, UniProt Q00535); experiment: biochemical
[3] = target: Cyclin-dependent kinase 4/cyclin D1 (Homo sapiens, UniProt P11802); experiment: biochemical
Chain of Cyclin-dependent kinase 4/cyclin D1 (P11802 whole entry): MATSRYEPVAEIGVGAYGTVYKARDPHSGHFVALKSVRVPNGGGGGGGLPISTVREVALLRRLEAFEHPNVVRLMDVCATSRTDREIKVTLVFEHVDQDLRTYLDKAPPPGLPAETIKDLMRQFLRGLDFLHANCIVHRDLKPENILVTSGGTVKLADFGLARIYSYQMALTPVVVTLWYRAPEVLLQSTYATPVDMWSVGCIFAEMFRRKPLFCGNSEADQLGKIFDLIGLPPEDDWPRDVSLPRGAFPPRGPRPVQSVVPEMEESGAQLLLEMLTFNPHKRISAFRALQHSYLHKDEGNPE
Chain of Cyclin-dependent kinase 4/cyclin D1 (P24385 whole entry, further chain): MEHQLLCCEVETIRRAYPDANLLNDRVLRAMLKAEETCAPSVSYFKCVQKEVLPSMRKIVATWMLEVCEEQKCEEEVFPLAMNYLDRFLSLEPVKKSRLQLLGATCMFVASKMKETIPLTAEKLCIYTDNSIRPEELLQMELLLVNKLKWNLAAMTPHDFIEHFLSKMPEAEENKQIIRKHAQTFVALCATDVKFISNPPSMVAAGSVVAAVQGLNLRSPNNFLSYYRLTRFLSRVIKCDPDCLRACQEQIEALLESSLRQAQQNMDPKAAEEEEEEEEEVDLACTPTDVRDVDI

[4] = target: CDK9/cyclin T1 (Homo sapiens, UniProt P50750); experiment: biochemical
Chain of CDK9/cyclin T1 (O60563 whole entry): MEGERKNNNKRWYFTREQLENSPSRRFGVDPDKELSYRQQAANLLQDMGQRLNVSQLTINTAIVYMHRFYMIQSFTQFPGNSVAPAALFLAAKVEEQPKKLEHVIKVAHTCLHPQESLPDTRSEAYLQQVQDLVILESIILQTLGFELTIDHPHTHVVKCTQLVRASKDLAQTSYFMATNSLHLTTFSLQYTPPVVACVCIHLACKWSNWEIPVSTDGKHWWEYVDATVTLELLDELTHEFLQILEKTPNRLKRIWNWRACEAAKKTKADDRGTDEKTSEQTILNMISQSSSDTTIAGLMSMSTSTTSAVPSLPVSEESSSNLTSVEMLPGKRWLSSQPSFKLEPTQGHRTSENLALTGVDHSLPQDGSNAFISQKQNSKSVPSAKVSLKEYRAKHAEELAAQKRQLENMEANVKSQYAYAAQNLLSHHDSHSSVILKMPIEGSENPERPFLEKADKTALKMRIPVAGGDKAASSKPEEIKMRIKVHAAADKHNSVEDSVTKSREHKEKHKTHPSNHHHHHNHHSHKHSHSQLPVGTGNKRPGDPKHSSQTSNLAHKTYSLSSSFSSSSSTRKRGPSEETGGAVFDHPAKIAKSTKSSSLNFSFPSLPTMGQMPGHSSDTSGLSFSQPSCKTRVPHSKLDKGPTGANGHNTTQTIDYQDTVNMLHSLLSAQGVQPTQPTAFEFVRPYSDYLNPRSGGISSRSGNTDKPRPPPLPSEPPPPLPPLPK
Chain of CDK9/cyclin T1 (P50750 whole entry): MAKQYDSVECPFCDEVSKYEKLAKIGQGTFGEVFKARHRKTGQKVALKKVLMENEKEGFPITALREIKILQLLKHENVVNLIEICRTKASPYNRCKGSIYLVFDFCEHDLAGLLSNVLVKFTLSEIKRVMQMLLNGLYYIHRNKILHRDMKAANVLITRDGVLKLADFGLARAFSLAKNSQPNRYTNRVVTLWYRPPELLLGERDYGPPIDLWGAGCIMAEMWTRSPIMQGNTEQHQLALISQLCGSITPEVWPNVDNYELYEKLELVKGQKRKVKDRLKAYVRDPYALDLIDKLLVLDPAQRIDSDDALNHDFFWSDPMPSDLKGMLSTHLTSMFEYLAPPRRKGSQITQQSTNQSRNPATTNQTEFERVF

[5] = target: CDK2/Cyclin A2 (Homo sapiens, UniProt P24941)
[6] = target: CDK7/Cyclin H/MNAT1 (Homo sapiens, UniProt P50613); experiment: biochemical
Chain of CDK7/Cyclin H/MNAT1 (P51946 whole entry): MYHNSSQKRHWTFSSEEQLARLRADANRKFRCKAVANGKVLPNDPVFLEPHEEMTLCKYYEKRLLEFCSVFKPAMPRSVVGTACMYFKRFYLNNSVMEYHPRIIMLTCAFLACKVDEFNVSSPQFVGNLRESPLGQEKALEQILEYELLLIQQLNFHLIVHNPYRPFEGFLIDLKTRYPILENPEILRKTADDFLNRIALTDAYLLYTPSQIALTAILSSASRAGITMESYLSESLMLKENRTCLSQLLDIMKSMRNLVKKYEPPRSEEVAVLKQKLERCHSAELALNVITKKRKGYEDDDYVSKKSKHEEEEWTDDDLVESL
Chain of CDK7/Cyclin H/MNAT1 (P50613 whole entry): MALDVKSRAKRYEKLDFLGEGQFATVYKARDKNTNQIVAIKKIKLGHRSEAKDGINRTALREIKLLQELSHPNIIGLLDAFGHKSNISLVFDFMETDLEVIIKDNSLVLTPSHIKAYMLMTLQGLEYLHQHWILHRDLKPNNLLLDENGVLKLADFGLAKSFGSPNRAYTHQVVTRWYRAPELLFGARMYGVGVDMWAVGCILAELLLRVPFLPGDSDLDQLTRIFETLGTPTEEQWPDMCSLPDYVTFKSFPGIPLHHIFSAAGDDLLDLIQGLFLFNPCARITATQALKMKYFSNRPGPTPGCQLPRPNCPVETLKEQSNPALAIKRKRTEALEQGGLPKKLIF
Chain of CDK7/Cyclin H/MNAT1 (P51948 whole entry, further chain): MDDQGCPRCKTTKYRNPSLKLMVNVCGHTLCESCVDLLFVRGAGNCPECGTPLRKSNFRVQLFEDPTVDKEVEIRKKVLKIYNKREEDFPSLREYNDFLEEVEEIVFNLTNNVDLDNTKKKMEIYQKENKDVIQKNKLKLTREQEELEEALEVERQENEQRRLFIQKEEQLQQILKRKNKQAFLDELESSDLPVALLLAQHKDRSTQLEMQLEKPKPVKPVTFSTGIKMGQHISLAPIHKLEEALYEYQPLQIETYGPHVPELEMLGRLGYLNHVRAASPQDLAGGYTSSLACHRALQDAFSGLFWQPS

[7] = target: Cyclin-dependent kinase 1/cyclin B1 (Homo sapiens, UniProt P06493); experiment: biochemical
Chain of Cyclin-dependent kinase 1/cyclin B1 (P06493 whole entry): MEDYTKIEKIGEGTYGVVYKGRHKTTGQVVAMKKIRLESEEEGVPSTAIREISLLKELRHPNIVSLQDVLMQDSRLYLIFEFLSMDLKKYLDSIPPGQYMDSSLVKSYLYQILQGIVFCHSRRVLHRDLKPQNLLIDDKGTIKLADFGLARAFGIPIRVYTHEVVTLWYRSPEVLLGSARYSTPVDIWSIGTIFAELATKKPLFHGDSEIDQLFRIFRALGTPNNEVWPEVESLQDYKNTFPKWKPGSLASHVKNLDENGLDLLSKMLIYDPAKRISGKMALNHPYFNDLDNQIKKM
Chain of Cyclin-dependent kinase 1/cyclin B1 (P14635 whole entry, further chain): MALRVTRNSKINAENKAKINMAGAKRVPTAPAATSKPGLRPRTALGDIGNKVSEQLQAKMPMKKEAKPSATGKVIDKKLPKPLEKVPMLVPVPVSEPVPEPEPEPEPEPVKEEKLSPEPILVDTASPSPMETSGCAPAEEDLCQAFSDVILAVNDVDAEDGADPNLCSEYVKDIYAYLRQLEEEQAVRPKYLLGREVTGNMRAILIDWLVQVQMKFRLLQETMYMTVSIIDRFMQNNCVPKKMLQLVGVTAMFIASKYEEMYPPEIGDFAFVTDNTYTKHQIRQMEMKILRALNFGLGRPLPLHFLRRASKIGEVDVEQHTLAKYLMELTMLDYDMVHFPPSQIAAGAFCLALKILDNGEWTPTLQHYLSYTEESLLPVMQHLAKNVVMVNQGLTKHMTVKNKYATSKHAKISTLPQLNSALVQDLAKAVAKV

[8] = tested on: HCT-116; experiment: Induction of cell cycle arrest in human HCT116 cells assessed as reduction in accumulation at G1 phase 2.6 to 29.6 uM after 24 hrs by propidium iodide-staining based flow cytometry; assay type: functional
[9] = tested on: HCT-116; experiment: Induction of cell cycle arrest in human HCT116 cells assessed as accumulation at G2/M phase 2.6 to 29.6 uM after 24 hrs by propidium iodide-staining based flow cytometry relative to control; assay type: functional
[10] = tested on: HCT-116; experiment: Induction of cell cycle arrest in CDK2 knocked out human HCT116 cells assessed as accumulation at G2/M phase at 100 to 500 nM after 24 hrs by propidium iodide-staining based flow cytometry; assay type: functional
[11] = target: Cyclin-dependent kinase 9 (Homo sapiens) (UniProt P50750); experiment: Inhibition of CDK9 in human HCT116 cells assessed as induction of dephosphorylation of RNA polymerase 2 S2/S5 residues at 250 to 500 nM after 24 hrs by Western blot analysis; assay type: cell-based
Chain of Cyclin-dependent kinase 9 (Homo sapiens) (P50750 whole entry): as the sequence (P50750 whole entry) above

[12] = target: Cyclin-dependent kinase 7 (Homo sapiens) (UniProt P50613); experiment: Inhibition of CDK7 in human HCT116 cells assessed as induction of dephosphorylation of RNA polymerase 2 S2/S5 residues at 250 to 500 nM after 24 hrs by Western blot analysis; assay type: cell-based
Chain of Cyclin-dependent kinase 7 (Homo sapiens) (P50613 whole entry): as the sequence (P50613 whole entry) above

[13] = tested on: HCT-116; experiment: Induction of cell cycle arrest in human HCT116 cells assessed as accumulation at G2/M phase at 0.05 to 0.5 uM after 24 hrs by propidium iodide-staining based flow cytometry relative to control; assay type: functional
[14] = target: T1, Cyclin-dependent kinase 5/CDK5 activator 1 (Homo sapiens) (UniProt Q00535+Q15078); experiment: Inhibition of CDK5/p25 in human HCT116 cells assessed as induction of dephosphorylation of FAK at Ser732 residue at 250 to 500 nM after 24 hrs by Western blot analysis; assay type: cell-based
T1 sequence (Q00535 whole entry): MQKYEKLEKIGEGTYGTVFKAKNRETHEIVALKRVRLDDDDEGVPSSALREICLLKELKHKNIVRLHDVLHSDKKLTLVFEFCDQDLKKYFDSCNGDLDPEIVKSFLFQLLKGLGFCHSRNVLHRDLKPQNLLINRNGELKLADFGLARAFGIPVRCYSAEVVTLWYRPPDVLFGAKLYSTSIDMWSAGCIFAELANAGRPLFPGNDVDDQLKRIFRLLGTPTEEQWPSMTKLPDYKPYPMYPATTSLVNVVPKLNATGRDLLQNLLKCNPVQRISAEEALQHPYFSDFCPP
T1 sequence (Q15078 99-307 partner limits assumed): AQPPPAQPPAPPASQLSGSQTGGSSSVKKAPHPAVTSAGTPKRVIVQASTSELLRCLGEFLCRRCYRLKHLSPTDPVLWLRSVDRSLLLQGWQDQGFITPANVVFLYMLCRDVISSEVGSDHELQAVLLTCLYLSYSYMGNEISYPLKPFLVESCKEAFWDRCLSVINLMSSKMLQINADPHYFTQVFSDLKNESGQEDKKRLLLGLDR

[15] = target: T2, N-lysine methyltransferase KMT5A (Homo sapiens, UniProt Q9NQR1); experiment: Inhibition of SETD8 (unknown origin)
T2 sequence (Q9NQR1 whole entry): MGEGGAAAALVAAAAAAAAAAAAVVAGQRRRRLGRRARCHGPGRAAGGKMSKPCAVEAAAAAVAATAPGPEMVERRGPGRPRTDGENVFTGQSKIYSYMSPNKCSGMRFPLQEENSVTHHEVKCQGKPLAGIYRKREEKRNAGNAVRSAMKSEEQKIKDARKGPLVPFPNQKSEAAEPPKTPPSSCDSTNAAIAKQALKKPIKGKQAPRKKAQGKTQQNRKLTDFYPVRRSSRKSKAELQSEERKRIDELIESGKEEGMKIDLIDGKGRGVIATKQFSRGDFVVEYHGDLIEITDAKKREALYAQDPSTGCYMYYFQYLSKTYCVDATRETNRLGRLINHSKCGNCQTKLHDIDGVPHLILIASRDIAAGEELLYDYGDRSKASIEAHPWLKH

[16] = tested on: HCT-116; experiment: Induction of cell cycle arrest in human HCT116 cells assessed as accumulation at S phase at 2.6 to 29.6 uM after 24 hrs by propidium iodide-staining based flow cytometry; assay type: functional
[17] = target: Cyclin-dependent kinase 7 (Homo sapiens) (UniProt P50613); experiment: Inhibition of CDK7 in human HCT116 cells assessed as induction of dephosphorylation of RNA polymerase 2 S2/S5 residues at 0.5 to 1 uM after 24 hrs by Western blot analysis; assay type: cell-based
[18] = tested on: HCT-116; experiment: Induction of cell cycle arrest in human HCT116 cells assessed as accumulation at G2/M phase at 0.07 to 0.8 uM after 24 hrs by propidium iodide-staining based flow cytometry relative to control; assay type: functional
[19] = target: Cyclin-dependent kinase 9 (Homo sapiens) (UniProt P50750); experiment: Inhibition of CDK9 in human HCT116 cells assessed as induction of dephosphorylation of RNA polymerase 2 S2/S5 residues at 0.5 to 1 uM after 24 hrs by Western blot analysis; assay type: cell-based
[20] = tested on: HCT-116; experiment: Induction of cell cycle arrest in CDK2 knocked out human HCT116 cells assessed as accumulation at G2/M phase at 0.5 to 3.9 after 24 hrs by propidium iodide-staining based flow cytometry; assay type: functional
[21] = target: T1, Cyclin-dependent kinase 5/CDK5 activator 1 (Homo sapiens); experiment: Inhibition of CDK5/p25 in human HCT116 cells assessed as induction of dephosphorylation of FAK at Ser732 residue at 0.5 to 1 uM after 24 hrs by Western blot analysis; assay type: cell-based
[22] = target: T3, Aurora kinase A (Homo sapiens, UniProt O14965); experiment: Inhibition of GST-tagged AURORA A (unknown origin) expressed in baculovirus infected Sf9 cells using MBP as substrate
T3 sequence (O14965 whole entry): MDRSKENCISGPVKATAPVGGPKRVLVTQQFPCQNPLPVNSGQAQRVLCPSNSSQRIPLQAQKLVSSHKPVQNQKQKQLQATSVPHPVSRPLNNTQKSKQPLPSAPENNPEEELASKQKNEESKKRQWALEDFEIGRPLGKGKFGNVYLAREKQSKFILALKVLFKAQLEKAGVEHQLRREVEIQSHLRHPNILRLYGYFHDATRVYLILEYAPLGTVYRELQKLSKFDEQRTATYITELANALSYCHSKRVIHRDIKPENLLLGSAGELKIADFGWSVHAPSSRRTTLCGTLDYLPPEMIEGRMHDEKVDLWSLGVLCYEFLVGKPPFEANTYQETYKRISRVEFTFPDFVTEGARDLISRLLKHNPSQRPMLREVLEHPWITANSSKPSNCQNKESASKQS

[23] = tested on: HCT-116; experiment: Induction of cell cycle arrest in human HCT116 cells assessed as accumulation at G2/M phase at 2.6 to 19.8 uM after 24 hrs by propidium iodide-staining based flow cytometry relative to control; assay type: functional
[24] = target: Aurora kinase B (Homo sapiens, UniProt Q96GD4); experiment: biochemical
[25] = tested on: HCT-116; experiment: Induction of cell cycle arrest in CDK2 knocked out human HCT116 cells assessed as accumulation at G2/M phase at 13.2 to […] after 24 hrs by propidium iodide-staining based flow cytometry; assay type: functional
[26] = tested on: HCT-116; experiment: Induction of cell cycle arrest in human HCT116 cells assessed as reduction in accumulation at G1 phase at 8.8 to 100 uM after 24 hrs by propidium iodide-staining based flow cytometry; assay type: functional; parameters: scale not given: the % may be the effect or the level left
[27] = tested on: HCT-116; experiment: Induction of cell cycle arrest in CDK2 knocked out human HCT116 cells assessed as accumulation at G2/M phase at 0.8 to 5.9 after 24 hrs by propidium iodide-staining based flow cytometry; assay type: functional
[28] = target: T1, Cyclin-dependent kinase 5/CDK5 activator 1 (Homo sapiens); experiment: Inhibition of CDK5/p25 in human HCT116 cells assessed as induction of dephosphorylation of FAK at Ser732 residue at 10 to 50 uM after 24 hrs by Western blot analysis; assay type: cell-based

Chain of Cyclin-dependent kinase 5/CDK5 activator 1 (Q00535 whole entry): as the sequence (Q00535 whole entry) above
Chain of Cyclin-dependent kinase 5/CDK5 activator 1 (Q15078 whole entry, further chain): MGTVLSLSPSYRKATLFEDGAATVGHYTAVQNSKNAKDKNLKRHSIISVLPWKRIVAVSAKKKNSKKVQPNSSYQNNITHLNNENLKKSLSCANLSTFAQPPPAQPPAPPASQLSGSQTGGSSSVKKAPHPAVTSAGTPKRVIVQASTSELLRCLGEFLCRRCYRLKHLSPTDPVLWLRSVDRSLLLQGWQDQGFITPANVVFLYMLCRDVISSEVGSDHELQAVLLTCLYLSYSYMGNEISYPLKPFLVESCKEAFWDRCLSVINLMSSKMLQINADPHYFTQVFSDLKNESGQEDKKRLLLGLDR

Row | SMILES | IC50 [1] [µM] | IC50 [2] [µM] | IC50 [3] [µM] | IC50 [4] [µM] | IC50 [5] [µM] | IC50 [6] [µM] | IC50 [7] [µM] | Activity [10] | Activity [20] | also measured
1 | O=C1NC(=O)c2c1c1c3ccccc3[nH]c1c1[nH]c3cc(Br)ccc3c21 | 0.229 | 0.154 | 0.091 | 4 | 0.185 | > 20 | 1.5 | – | – | Activity [8]: Active; Activity [9]: <=30%
2 | Nc1nc(Nc2ccc(S(N)(=O)=O)cc2)nn1C(=S)Nc1c(F)cccc1F | – | 0.0002 | 0.059 | 0.03 | – | 0.066 | 0.002 | Active | – | inhibition [11]: inactive; inhibition [12]: inactive; Activity [13]: >=60%; inhibition [14]: Active
3 | Cc1ccc(NC2=CC(=O)c3sc(C)nc3C2=O)cc1 | > 20 | > 20 | 9.5 | > 20 | > 20 | > 20 | > 20 | – | – | IC50 [15]: 0.5 µM; Activity [16]: 15%
4 | OCCCNc1cc(-c2ccnc(Nc3cccc(Cl)c3)n2)ccn1 | 0.003 | 0.01 | 0.216 | – | 0.004 | 0.2 | 0.026 | – | Active | inhibition [17]: inactive; Activity [18]: <=30%; inhibition [19]: inactive; inhibition [21]: Active
5 | O=C1Nc2ccccc2/C1=C\c1c(Cl)[nH]c2ccccc12 | 9.4 | 5.8 | > 20 | > 20 | 13.2 | 16 | 6.7 | – | – | IC50 [22]: > 20 µM; Activity [23]: >=60%; IC50 [24]: 15.6 µM
6 | CC(C)c1cnc(NC(=O)Cc2ccccc2)s1 | 0.195 | 0.458 | 20.4 | 3.4 | 0.353 | 0.637 | 1.7 | Active | Active | Activity [25]: Active; Activity [26]: <=30%; Activity [27]: Active; inhibition [28]: Active
